The text below walks through data of the supplement of paper PMC6965134.

The series can be described thus: TIMS collisional cross section (CCS, N2) of the lipid ion; higher = larger ion cross section. The note with it: ionization mode: positive, one isomer drawn.

Each structure is given as a SMILES string. ± gives the standard deviation of the averaged measurements.

With `CCCCC/C=C\C/C=C\CCCCCCCC(=O)O[C@H](COC(=O)CCCCCCC/C=C\CCCCCCCC)COP(=O)(O)OCCN` [PE 18:1_18:2] (ion (formula + adduct): [C41H76NO8P+H] 1+), the “TIMS collisional cross section” value runs as follows: (sample type: HeLa) 275.7 Å²; (sample type: Liver) 276.1 Å².

For `CCCCC/C=C\C/C=C\CCCCCCCC(=O)O[C@H](COC(=O)CCCCCCC/C=C\CCCCCCCC)COP(=O)(O)OCCN` [PE 18:1_18:2] (ion (formula + adduct): [C41H76NO8P+Na] 1+), the “TIMS collisional cross section” value by setting is: (sample type: HeLa) 276 Å²; (sample type: Liver) 277.2 Å².

As for `CCCCCCCC/C=C\CCCCCCCCCC(=O)O[C@H](COC(=O)CCCCCCC/C=C\CCCCCCCC)COP(=O)(O)OCCN` [PE 18:1_20:1@] (ion (formula + adduct): [C43H82NO8P+H] 1+), the “TIMS collisional cross section” value (sample type: Liver) was 285.5 Å².

As to `CCCCCCCC/C=C\CCCCCCCC(=O)OC[C@H](COP(=O)(O)OCCN)OC(=O)CCCCCCCCC/C=C\CCCCCCCCCC` [PE 18:1_22:1] (ion (formula + adduct): [C45H86NO8P+H] 1+), the “TIMS collisional cross section” value (sample type: HeLa) was determined as 292.4 Å².

Take `CCCCC/C=C\C/C=C\CCCCCCCCCCCC(=O)O[C@H](COC(=O)CCCCCCC/C=C\CCCCCCCC)COP(=O)(O)OCCN` [PE 18:1_22:2@] (ion (formula + adduct): [C45H84NO8P+H] 1+): under “sample type: Liver”, the “TIMS collisional cross section” value was 291.5 Å².

On to `CCCCC/C=C\C/C=C\CCCCCCCC(=O)OC[C@H](COP(=O)(O)OCCN)OC(=O)CCCCCCC/C=C\CCCCCC` [PE 18:2@_16:1] (ion (formula + adduct): [C39H72NO8P+H] 1+), for which the “TIMS collisional cross section” value (sample type: HeLa) came out at 270 Å².

Turning to `CC/C=C\C/C=C\C/C=C\C/C=C\C/C=C\CCCC(=O)O[C@H](COC(=O)CCCCCCC/C=C\C/C=C\CCCCC)COP(=O)(O)OCCN` [PE 18:2@_20:5] (ion (formula + adduct): [C43H72NO8P+H] 1+), the “TIMS collisional cross section” value (sample type: Liver) came out at 277.2 Å².

Take `CCCCC/C=C\C/C=C\CCCCCCCC(=O)OC[C@H](COP(=O)(O)OCCN)OC(=O)CCCCCCC/C=C\CCCCCC` [PE 18:2_16:1] (ion (formula + adduct): [C39H72NO8P+H] 1+): the “TIMS collisional cross section” value (sample type: Liver) was 268.7 Å².

In the case of `CCCCC/C=C\C/C=C\CCCCCCCC(=O)OC[C@H](COP(=O)(O)OCCN)OC(=O)CCCCCCC/C=C\C/C=C\CCCCC` [PE 18:2_18:2] (ion (formula + adduct): [C41H74NO8P+H] 1+), the “TIMS collisional cross section” value (sample type: Liver) is listed as 273.1 Å².

As to `CCCCC/C=C\C/C=C\C/C=C\CCCCC(=O)O[C@H](COC(=O)CCCCCCC/C=C\C/C=C\CCCCC)COP(=O)(O)OCCN` [PE 18:2_18:3] (ion (formula + adduct): [C41H72NO8P+H] 1+), where the note is “sample type: Liver”, the “TIMS collisional cross section” value worked out at 270.2 Å².

As to `CCCCC/C=C\C/C=C\CCCCCCCC(=O)OC[C@H](COP(=O)(O)OCCN)OC(=O)CCCCCCCCC/C=C\CCCCCCCC` [PE 18:2_20:1] (ion (formula + adduct): [C43H80NO8P+Na] 1+), for the setting “sample type: Liver”, the “TIMS collisional cross section” value amounted to 284.2 Å².

Turning to `CCCCC/C=C\C/C=C\C/C=C\C/C=C\CCCC(=O)O[C@H](COC(=O)CCCC/C=C\C/C=C\C/C=C\CCCCC)COP(=O)(O)OCCN` [PE 18:3_20:4@] (ion (formula + adduct): [C43H72NO8P+H] 1+), the “TIMS collisional cross section” value is listed as 273.8 Å² (sample type: HeLa) and 273.7 Å² (sample type: Liver).

Take `CC/C=C\C/C=C\C/C=C\C/C=C\C/C=C\C/C=C\CCC(=O)O[C@H](COC(=O)CCCC/C=C\C/C=C\C/C=C\CCCCC)COP(=O)(O)OCCN` [PE 18:3_22:6] (ion (formula + adduct): [C45H72NO8P+H] 1+): under “sample type: Liver”, the “TIMS collisional cross section” value is 276.7 Å².

For the compound `CCCCC/C=C\C/C=C\C/C=C\C/C=C\CCCC(=O)O[C@H](COC(=O)CCCCCCCCCCCCCCCCCC)COP(=O)(O)OCCN` [PE 19:0_20:4@] (ion (formula + adduct): [C44H80NO8P+H] 1+), for the setting “sample type: HeLa”, the “TIMS collisional cross section” value is on record as 287.3 Å².

Take `CCCCC/C=C\C/C=C\CCCCCCCC(=O)O[C@H](COC(=O)CCCCCCCCCCCCCCCCCCC)COP(=O)(O)OCCN` [PE 20:0@_18:2] (ion (formula + adduct): [C43H82NO8P+H] 1+): the “TIMS collisional cross section” value (sample type: Liver) was 286.3 Å².

Turning to `CCCCC/C=C\C/C=C\C/C=C\C/C=C\CCCC(=O)O[C@H](COC(=O)CCCCCCCCC/C=C\CCCCCCCC)COP(=O)(O)OCCN` [PE 20:1_20:4] (ion (formula + adduct): [C45H80NO8P+H] 1+), the “TIMS collisional cross section” value (sample type: Liver) came out at 287.2 Å².

Take `CCCCC/C=C\C/C=C\C/C=C\CCCCCCC(=O)OC[C@H](COP(=O)(O)OCCN)OC(=O)CCCCCCCCCCCCCCC` [PE 20:3@_16:0] (ion (formula + adduct): [C41H76NO8P+H] 1+): where the note is “sample type: HeLa”, the “TIMS collisional cross section” value stood at 279.1 Å².

As to `CCCCC/C=C\C/C=C\C/C=C\C/C=C\CCCC(=O)O[C@H](COC(=O)CCCCCC/C=C\C/C=C\C/C=C\CCCCC)COP(=O)(O)OCCN` [PE 20:3_20:4@] (ion (formula + adduct): [C45H76NO8P+H] 1+), under “sample type: Liver”, the “TIMS collisional cross section” value worked out at 280.9 Å².

In the case of `CCCCC/C=C\C/C=C\C/C=C\C/C=C\CCCC(=O)OC[C@H](COP(=O)(O)OCCN)OC(=O)CCCCCCCCCCCCC` [PE 20:4@_14:0] (ion (formula + adduct): [C39H70NO8P+H] 1+), the “TIMS collisional cross section” value (sample type: HeLa) is 270.2 Å².

For `CC/C=C\C/C=C\C/C=C\C/C=C\C/C=C\C/C=C\CCC(=O)O[C@H](COC(=O)CCC/C=C\C/C=C\C/C=C\C/C=C\CCCCC)COP(=O)(O)OCCN` [PE 20:4@_22:6] (ion (formula + adduct): [C47H74NO8P+H] 1+), the “TIMS collisional cross section” value is 284.8 Å² (sample type: HeLa) and 284.4 Å² (sample type: Liver).

Turning to `CCCCC/C=C\C/C=C\C/C=C\C/C=C\CCCC(=O)OC[C@H](COP(=O)(O)OCCN)OC(=O)CCCCCCC/C=C\CCCCCC` [PE 20:4_16:1] (ion (formula + adduct): [C41H72NO8P+H] 1+), the “TIMS collisional cross section” value is, setting by setting: (sample type: HeLa) 272.4 Å²; (sample type: Liver) 272.6 Å².

Consider `CCCCC/C=C\C/C=C\C/C=C\C/C=C\CCCC(=O)OC[C@H](COP(=O)(O)OCCN)OC(=O)CCCCCCC/C=C\CCCCCCCC` [PE 20:4_18:1] (ion (formula + adduct): [C43H76NO8P+H] 1+), for which the “TIMS collisional cross section” value is given as 279.1 Å² (sample type: HeLa) and 280 ± 0.42 Å² (sample type: Liver).

Regarding `CCCCC/C=C\C/C=C\C/C=C\C/C=C\CCCC(=O)OC[C@H](COP(=O)(O)OCCN)OC(=O)CCCCCCCCCCCCCCCCCCC` [PE 20:4_20:0] (ion (formula + adduct): [C45H82NO8P+H] 1+), under “sample type: Liver”, the “TIMS collisional cross section” value turned out to be 290.4 Å².

As to `CCCCC/C=C\C/C=C\C/C=C\C/C=C\CCCC(=O)OC[C@H](COP(=O)(O)OCCN)OC(=O)CCC/C=C\C/C=C\C/C=C\C/C=C\CCCCC` [PE 20:4_20:4] (ion (formula + adduct): [C45H74NO8P+H] 1+), the “TIMS collisional cross section” value reads like this: (sample type: HeLa) 280.6 Å²; (sample type: Liver) 279.6 Å².

Consider `CC/C=C\C/C=C\C/C=C\C/C=C\C/C=C\CCCC(=O)O[C@H](COC(=O)CCC/C=C\C/C=C\C/C=C\C/C=C\CCCCC)COP(=O)(O)OCCN` [PE 20:4_20:5] (ion (formula + adduct): [C45H72NO8P+H] 1+), for which the “TIMS collisional cross section” value (sample type: HeLa) amounted to 279.1 Å².
